Results taken from patent US9464113B2, “Anti-heparan sulfate peptides that block herpes simplex virus infection in vivo” (The Board of Trustees of the University of Illinois, priority 2010, dated 2016).
No end group written: not given here.

Columns and labels:
[1] = tested on: HSV-1 (KOS) gL86; assay: HSV-1 entry assay in CHO-K1 cells expressing gD receptors (3-OST-3, nectin-1, HVEM); type: cell-based, herpes simplex virus type-1; settings: CHO-K1 cells expressing one of three gD receptors; dose-dependent
Protocol: (§1) HSV-1 entry was assayed as described in Shukla et al., Cell 99:13-22 (1999). CHO-K1 cells were grown in 6-well plates to subconfluence and then transfected with 2.5 μg of expression plasmids for gD receptors nectin-1 (pBG38), HVEM (pBec10), 3-OST-3 isoform (pDS43), or pCDNA3.1 (empty vector) using LipofectAMINE (Gibco/BRL). At 16 h post-transfection, the cells were replated into 96-well dishes for pre-incubation with peptides at different concentrations for 60 min at room temperature. In parallel, natural target cells (HeLa, CF, and RPE) were also pre-treated with the peptides for the same duration. In all cases, unbound peptides were removed after washing 3× with PBS. Thereafter, cells were infected for 6 h with a recombinant virus, HSV-1 (KOS) gL86, at multiple plaque forming units (PFUs) and β-galactosidase assays were performed using either a soluble substrate o-nitrophenyl-β-D-galactopyranoside (ONPG at 3.0 mg/ml; ImmunoPure, Pierce) or X-gal (Sigma). For the soluble substrate, the enzymatic activity was measured at 410 nm using a micro-plate reader (Spectra Max 190, Molecular Devices, Sunnyvale, Calif.). For the X-gal assay, cells were fixed (2% formaldehyde and 0.2% glutaraldehyde) and permeabilized (2 mM MgCl2, 0.01% deoxycholate, and 0.02% nonidet NP-40 (Sigma)). 1 ml of β-galactosidase reagent (1.0 mg/ml X-gal in ferricyanide buffer) was added to each well and incubated at 37° C. for 90 min before the cells were examined using bright field microscopy under the 20× objectives of the inverted microscope (Zeiss Axiovert 100 M).
Peptide sequences from individual plaques were deduced by determining the nucleotide sequences of the portion of the phage genome that encoded them. The predicted peptide sequences of about 200 plaques were determined and sorted into two groups on the basis of their targets. […] After 6 hr, the cells were washed, permeabilized, and incubated with ONPG substrate (3.0 mg/ml) for quantitation of β-galactosidase activity expressed from the input viral genome. The enzymatic activity was measured at an optical density of 410 nm (OD410). […]

[2] = tested on: HSV-1 (KOS) gL86; assay: HSV-1 entry into primary human corneal fibroblasts (CF); type: cell-based, herpes simplex virus type-1; settings: for blocking of HSV-1 entry/infection: human CF, 60 min pre-treatment, 25 pfu/cell, 6 hr
Protocol: as §1
The ability of the G1 and G2 peptides to block HSV-1 entry into natural target cells (HeLa and primary cultures of human CF) was compared. A similar dosage response curve was generated when HeLa (FIG. 2A) or CF (FIG. 2B) were pre-treated with G1 or G2 peptides during HSV-1 entry. […] HeLa cells (FIG. 2A) and primary cultures of human corneal fibroblasts (CF) (FIG. 2B) were tested. Cells in 96-well plates were pre-treated for 60 min with indicated mM concentrations of G1, G2, or Cp peptides. Mock-treated cells (abbreviated as C) served as a control. Pretreated cells were infected with a β galactosidase-expressing recombinant virus HSV-1 (KOS) HSV-1 gL86 (25 pfu/cell) for 6 hr. Viral entry was quantitated as described above in reference to FIG. 1. Confirmation of HSV-1 entry blocking activity of G1, G2, and control (Cp) peptides on a per cell basis was obtained after cells were infected as described above followed by X-gal (1.0 mg/ml) staining (Right panels), which yields an insoluble blue product upon hydrolysis by β-galactosidase expressed from the input viral genomes. […] Microscopy was performed using a 20× objective of Zeiss Axiovert 100.
To better understand the inhibitory potential of G1 and G2 peptides, synthetic short variants (10-mer) were synthesized that lacked the terminal non-positively charged amino acids. In case of G1, N-terminus L and C-terminus H residues were removed. For G2, the N-terminus flanking residues (M and P) were removed. Without being bound by theory, it is believed that 12-mer peptides are too short to adopt substantial secondary or tertiary structures and that the primary structure of those peptides, which includes a defined sequence or groupings of positively charged residues, plays a critical role in mediating inhibition of HSV-1 entry. Synthetic 10-mer versions of G1 and G2 (shown above) were tested for blocking HSV-1(KOS)gL86 entry into cultured CF. After 6 h, the viral entry was measured by ONPG assay as described in FIG. 1.
Alanine (A) scanning mutagenesis was performed to identify specific amino acid residues responsible for each peptide's function, stability, and conformation. O'Nuallain et al., Biochemistry 46:13049-13058 (2007). Twelve synthetic peptides were made whereby each residue of G2 was sequentially replaced with an alanine residue and corresponding changes in the G2 peptide were evaluated for their ability to affect viral entry (FIG. 4B). […]

[3] = tested on: HSV-1 (KOS); assay: Mouse cornea model of HSV-1 infection (immunohistochemistry); type: in vivo, BALB/c mice
Protocol: BALB/c mice with pre-scarred corneal upper surface were treated with PBS-based eye drops containing 0.5 mM G1, G2, or control peptide followed by inoculation of HSV-1 (KOS). Mice were sacrificed after 4 and 7 days for HSV-1 detection. Immunohistochemistry was performed as described by Akhtar et al., Invest. Ophthalmol. Vis. Sci. 49:4026-4035 (2008). Briefly, tissue sections were hydrated with distilled water and antigen retrieval was performed using DAKO Target Retrieval Solution 10× concentrate (DAKO, Carpinteria, Calif.). Nonspecific staining was blocked using H2O2 solution for 10 minutes followed by a protein block for 10 minutes. Sections were incubated with HSV-1 gD specific antiserum (1:100 dilution) at room temperature for 1 hr followed by a 40-minute incubation with the secondary antibody (HRP-conjugated goat anti-rabbit IgG, 1:500; Sigma, St. Louis, Mo.). Expression of gD was detected using the DAKO Envision^+ kit. Confocal and differential interference contrast (DIC) image acquisition was conducted with an SB2-AOBS confocal microscope (Leica, Solms, Germany).
Immunohistochemistry was used to locate HSV-1 glycoprotein D (gD) expression in the cornea pre-treated with either a control peptide, G1 or G2 followed by HSV-1 infection. 100 μl of G1, G2, or Cp (control) peptide at 0.5 mM concentration was poured into the mouse cornea as a prophylactic “eye drop” followed by an infection with HSV-1 (KOS) at 10^6 PFU. At 4 or 7 days post infection, immunohistochemistry was performed using anti-HSV-1 gD polyclonal antibody.

[4] = 100 μl eye drop at 0.5 mM before 10^6 PFU, 4 and 7 days post infection

With LRSRTKIIRIRH [G1, LRSRTKIIRIRH] the “blocking of HSV-1 entry” value [1] was “able to block HSV-1 entry”, the “blocking of HSV-1 entry/infection” value [2] was “effective in blocking infection of individual cells” and the “HSV-1 protein (gD) expression in cornea” value [3, 4] was “virtually no HSV-1 protein expression was detected”. The “state of corneal epithelium” value [3, 4] was “epithelium remained intact”.
In the case of MPRRRRIRRRQK [G2, MPRRRRIRRRQK], the “blocking of HSV-1 entry” value [1] is reported as “able to block HSV-1 entry”, the “activity normalized against wild-type G2 (higher than 1 = loss of activity)” value ([2]; alanine scanning, FIG. 4B) is reported as 1.00 and the “blocking of HSV-1 entry/infection” value [2] is reported as “effective in blocking infection of individual cells”. For the same sequence, the “HSV-1 protein (gD) expression in cornea” value [3, 4] was “virtually no HSV-1 protein expression was detected” and the “state of corneal epithelium” value [3, 4] was “epithelium remained intact”.
In the case of RVCGSIGKEVLG [Cp, reference compound], the “blocking of HSV-1 entry” value [1] is reported as “did not inhibit HSV-1 entry”, the “blocking of HSV-1 entry/infection” value [2] is reported as “no effect on HSV-1 entry” and the “HSV-1 gD staining in cornea” value ([3]; 0.5 mM eye drop, day 4) is reported as “significant staining for HSV-1 gD”. The corneal inflammation ([3]; 0.5 mM eye drop, day 4) was “severe chronic inflammation”, the “HSV-1 staining in cornea” value ([3]; 0.5 mM eye drop, day 7) was “gone” and the “state of corneal epithelium” value ([3]; 0.5 mM eye drop, day 7) was “damage to the corneal epithelium was still evident”.
